≈ marks a conversion by molar mass, not a printed value.
Key:
[1] = test system: fluoroquinolone-resistant S. aureus ATCC 700699; assay: Minimum inhibitory concentration (MIC) assay, broth microdilution, MRSA; assay type: cell-based; details: Staphylococcus aureus; fluoroquinolone-resistant S. aureus ATCC 700699; Table I; read-out: MRSA MIC
Protocol: (§1) The antimicrobial activity of the compounds of the invention may be evaluated by a number of methods, including the following visual minimum inhibitory concentration (MIC) assay. This assay determines the minimum concentration of compound required to inhibit growth of a bacterial strain.
(§2) Whole-cell antibacterial activity is determined by broth microdilution using conditions recommended by the NCCLS (see National Committee for Clinical Laboratory Standards. 2001. Performance standards for antimicrobial susceptibility testing: 11th informational supplement. Vol. 21, no. 1, M100-S11. National Committee for Clinical Laboratory Standards, Wayne, Pa.). Test compounds are dissolved in DMSO and diluted 1:50 in Mueller-Hinton II broth (Becton-Dickinson) to produce a 256 μg/ml stock solution. In a 96-well microtiter plate, the compound solution is serially two-fold diluted in Mueller-Hinton II broth. After the compounds are diluted, a 50 μl aliquot of the test organism (˜1×10^6 cfu/mL) is added to each well of the microtiter plate. The final test concentrations ranges from 0.125-128 μg/mL. Inoculated plates are incubated in ambient air at 37° C. for 18 to 24 hours. The organisms selected for testing included laboratory strains S. aureus ATCC 29213 and E. coli ATCC 25922 (strains purchased from American Type Culture Collection, Manassas, Va.) m, S. aureus FQR700699, and Paeruginosa 27853. The minimum inhibitory concentration (MIC) is determined as the lowest concentration of compound that inhibited visible growth of the test organism.

S. aureus ATCC 29213 = assay: Minimum inhibitory concentration (MIC) assay, broth microdilution, MSSA; assay type: cell-based; details: Staphylococcus aureus, Table I
Protocol: as §1, §2

MIC [1] [µg/mL]	MIC (S. aureus ATCC 29213) [µg/mL]	SMILES
0.094 (≈ 0.212 µM)	0.02 (≈ 0.0452 µM)	COc1c(N2CC[C@@H]([C@H](C)N)C2)c(F)cc2c(=O)c3c(O)c(C#N)sc3n(C3CC3)c12 [Cmp 11, 7-((R)-3-((S)-1-aminoethyl)pyrrolidin-1-yl)-9-cyclopropyl-6-fluoro-3-hydroxyl-8-methoxy-4-oxo-4,9-dihydrothieno[2,3-b] quinoline-2-carbonitrile]
8 (≈ 16.9 µM)	8 (≈ 16.9 µM)	COc1c(N2CCNCC2)c(F)cc2c(=O)c3c(O)c(C(=O)C(C)(C)C)sc3n(C3CC3)c12 [Cmp 12, 9-cyclopropyl-6-fluoro-3-hydroxyl-8-methoxy-7-(piperazin-1-yl)-2-pivaloylthieno[2,3-b]quinolin 4(9H)-one]
32 (≈ 67.2 µM)	8 (≈ 16.8 µM)	COc1c(N2CC[C@@H](C(C)(C)N)C2)c(F)cc2c(=O)c3c(O)c([N+](=O)[O-])sc3n(C3CC3)c12 [Cmp 13, (R)-7-(3-(2-aminopropan-2-yl)pyrrolidin-1-yl)-9-cyclopropyl-6-fluoro-3-hydroxyl-8-methoxy-2-nitrothieno[2,3-b] quinolin-4(9H)-one]
0.25 (≈ 0.603 µM)	0.03 (≈ 0.0724 µM)	COc1c(N2CC[C@H](N)C2)c(F)cc2c(=O)c3c(O)c(C#N)sc3n(C3CC3)c12 [Cmp 22, (S)-7-(3-aminopyrrolidin-l-yl)-9-cyclopropyl-6-fluoro-3-hydroxyl-8-methoxy-4-oxo-4,9-dihydrothieno[2,3-b]quinoline-2-carbonitrile]
0.5 (≈ 1.2 µM)	0.03 (≈ 0.0722 µM)	COc1c(N2CC[C@H](O)C2)c(F)cc2c(=O)c3c(O)c(C#N)sc3n(C3CC3)c12 [Cmp 23, (S)-9-cyclopropyl-6-fluoro-3-hydroxyl-7-(3-hydroxyl-pyrrolidin-1-yl)-8-methoxy-4-oxo-4,9-dihydrothieno [2,3-b]quinoline-2-carbonitrile]
1 (≈ 2.49 µM)	0.06 (≈ 0.149 µM)	COc1c(N2CC(O)C2)c(F)cc2c(=O)c3c(O)c(C#N)sc3n(C3CC3)c12 [Cmp 24, 9-cyclopropyl-6-fluoro-3-hydroxyl-7-(3-hydroxylazetidin-1-yl)-8-methoxy-4-oxo-4,9-dihydrothieno[2,3-b]quinoline-2-carbonitrile]
0.5 (≈ 1.17 µM)	0.03 (≈ 0.07 µM)	COc1c(N2CCC(N)CC2)c(F)cc2c(=O)c3c(O)c(C#N)sc3n(C3CC3)c12 [Cmp 29, 7-(4-aminopiperidin-1-yl)-9-cyclopropyl-6-fluoro-3-hydroxyl-8-methoxy-4-oxo-4,9-dihydrothieno[2,3-b]quinoline-2-carbonitrile]
0.13 (≈ 0.276 µM)	0.03 (≈ 0.0638 µM)	CCN[C@@H](C)[C@@H]1CCN(c2c(F)cc3c(=O)c4c(O)c(C#N)sc4n(C4CC4)c3c2OC)C1 [Cmp 30, 9-cyclopropyl-7-((R)-3-((S)-1-(ethylamino)ethyl)pyrrolidin-1-yl)-6-fluoro-3-hydroxyl-8-methoxy-4-oxo-4,9-dihydrothieno [2,3-b]quinoline-2-carbonitrile]
0.25 (≈ 0.548 µM)	0.03 (≈ 0.0657 µM)	CN[C@@H](C)[C@@H]1CCN(c2c(F)cc3c(=O)c4c(O)c(C#N)sc4n(C4CC4)c3c2OC)C1 [Cmp 31, 9-cyclopropyl-6-fluoro-3-hydroxyl-8-methoxy-7-((R)-3-((S)-1-(methylamino)ethyl)pyrrolidin-1-yl)-4-oxo-4,9-dihydrothieno [2,3-b]quinoline-2-carbonitrile]
0.5 (≈ 1.05 µM)	0.13 (≈ 0.274 µM)	COc1c(N2CC[C@@H](C(C)(C)N)C2)c(F)cc2c(=O)c3c(O)c(C(N)=O)sc3n(C3CC3)c12 [Cmp 32, (R)-7-(3-(2-aminopropan-2-yl)pyrrolidin-1-yl)-9-cyclopropyl-6-fluoro-3-hydroxyl-8-methoxy-4-oxo-4,9-dihydrothieno [2,3-b]quinoline-2-carboxamide]
0.5 (≈ 1.06 µM)	0.06 (≈ 0.128 µM)	COc1c(N2CC[C@@H]([C@H](C)N(C)C)C2)c(F)cc2c(=O)c3c(O)c(C#N)sc3n(C3CC3)c12 [Cmp 33, 9-cyclopropyl-7-((R)-3-((S)-1-(dimethylamino)ethyl)pyrrolidin-1-yl)-6-fluoro-3-hydroxyl-8-methoxy-4-oxo-4,9-dihydrothieno [2,3-b]quinoline-2-carbonitrile]
0.5 (≈ 1.06 µM)	0.06 (≈ 0.128 µM)	CNC(C)(C)[C@@H]1CCN(c2c(F)cc3c(=O)c4c(O)c(C#N)sc4n(C4CC4)c3c2OC)C1 [Cmp 34, (R)-9-cyclopropyl-6-fluoro-3-hydroxyl-8-methoxy-7-(3-(2-(methylamino)propan-2-yl)pyrrolidin-1-yl)-4-oxo-4,9-dihydrothieno[2,3-b]quinoline-2-carbonitrile]
0.5 (≈ 1.03 µM)	0.06 (≈ 0.124 µM)	CCNC(C)(C)[C@@H]1CCN(c2c(F)cc3c(=O)c4c(O)c(C#N)sc4n(C4CC4)c3c2OC)C1 [Cmp 35, (R)-9-cyclopropyl-7-(3-(2-(ethylamino)propan-2-yl)pyrrolidin-1-yl)-6-fluoro-3-hydroxyl-8-methoxy-4-oxo-4,9-dihydrothieno [2,3-b]quinoline-2-carbonitrile]
2 (≈ 4.13 µM)	0.25 (≈ 0.516 µM)	COc1c(N2CC[C@@H](C(C)(C)N(C)C)C2)c(F)cc2c(=O)c3c(O)c(C#N)sc3n(C3CC3)c12 [Cmp 36, (R)-9-cyclopropyl-7-(3-(2-(dimethylamino)propan-2-yl)pyrrolidin-1-yl)-6-fluoro-3-hydroxyl-8-methoxy-4-oxo-4,9-dihydrothieno[2,3-b]quinoline-2-carbonitrile]

Further lines, the compound ahead of its results:

SMILES	MIC [1] [µg/mL]	MIC (S. aureus ATCC 29213) [µg/mL]
COc1c(N2CCNCC2)c(F)cc2c(=O)c3c(O)c(S(=O)(=O)c4ccccc4)sc3n(C3CC3)c12 [Cmp 14, 9-cyclopropyl-6-fluoro-3-hydroxyl-8-methoxy-2-(phenylsulfonyl)-methoxy-2-7-(piperazin-1-yl)thieno[2,3-b]quinolin-4(9H)-one]	16 (≈ 30.2 µM)	1 (≈ 1.89 µM)
COc1c(N2CCNCC2)c(F)cc2c(=O)c3c(O)c(-c4ccc(F)c(F)c4)sc3n(C3CC3)c12 [Cmp 15, 9-cyclopropyl-2-(3,4-difluorophenyl)-6-fluoro-3-hydroxyl-8-methoxy-7-(piperazin-1-yl)thieno[2,3-b]quinolin-4(9H)-one]	4 (≈ 7.98 µM)	8 (≈ 16 µM)
N#Cc1sc2c(c1O)c(=O)c1ccc(N3CCNCC3)c(OC(F)F)c1n2C1CC1 [Cmp 16, 9-cyclopropyl-8-(difluoromethoxy)-3-hydroxyl-4-oxo-7-(piperazin-l-yl)-4,9-dihydrothieno[2,3-b]quinoline-2-carbonitrile]	64 (≈ 148 µM)	4 (≈ 9.25 µM)
CN(C)c1ccc2c(=O)c3c(O)c(C#N)sc3n(C3CC3)c2c1OC(F)F [Cmp 17, 9-cyclopropyl-8-(difluoromethoxy)-7-(dimethylamino)-3-hydroxyl-4-oxo-4,9-dihydrothieno[2,3-b]quinoline-2-carbonitrile]	64 (≈ 164 µM)	4 (≈ 10.2 µM)
N#CCN1CCN(c2c(F)cc3c(=O)c4c(O)c(C#N)sc4n(C4CC4)c3c2OC(F)F)CC1 [Cmp 18, 7-(4-(cyanomethyl)piperazin-1-yl)-9-cyclopropyl-8-(difluoromethoxy)-6-fluoro-3-hydroxyl-4-oxo-4,9-dihydrothieno [2,3-b]quinoline-2-carbonitrile]	4 (≈ 8.17 µM)	0.13 (≈ 0.266 µM)
COc1c(N2CCNCC2)ccc2c(=O)c3c(O)c(C#N)sc3n(C3CC3)c12 [Cmp 19, 9-cyclopropyl-3-hydroxyl-8-methoxy-4-oxo-7-(piperazin-1-yl)-4,9-dihydrothieno[2,3-b]quinoline-2-carbonitrile]	4 (≈ 10.1 µM)	0.25 (≈ 0.631 µM)
COc1c(N2CCNCC2)c(F)cc2c(=O)c3c(O)c(C(=O)C(F)(F)F)sc3n(C3CC3)c12 [Cmp 20, 9-cyclopropyl-6-fluoro-3-hydroxyl-8-methoxy-7-(piperazin-1-yl)-2-(2,2,2-trifluoroacetyl)thieno[2,3-b]quinolin-4(9H)-one]	> 64	64 (≈ 132 µM)
N#Cc1sc2c(c1O)c(=O)c1cc(F)c(N3CCNCC3)cc1n2C1CC1 [Cmp 21, 9-cyclopropyl-6-fluoro-3-hydroxyl-4-oxo-7-(piperazin-1-yl)-4,9-dihydrothieno[2,3-b]quinoline-2-carbonitrile]	2 (≈ 5.2 µM)	0.13 (≈ 0.338 µM)
COc1c(N2CCNCC2)c(F)cc2c(=O)c3c(O)c(C(N)=O)sc3n(C3CC3)c12 [Cmp 25, 9-cyclopropyl-6-fluoro-3-hydroxyl-8-methoxy-4-oxo-7-(piperazin-1-yl)-4,9-dihydrothieno[2,3-b]quinoline-2-carboxamide]	2 (≈ 4.62 µM)	0.25 (≈ 0.578 µM)
COc1c(N2CCN(C)CC2)c(F)cc2c(=O)c3c(O)c(C#N)sc3n(C3CC3)c12 [Cmp 26, 9-cyclopropyl-6-fluoro-3-hydroxyl-8-methoxy-7-(4-methylpiperazin-1-yl)-4-oxo-4,9-dihydrothieno[2,3-b] quinoline-2-carbonitrile]	1 (≈ 2.33 µM)	0.13 (≈ 0.303 µM)
COc1c(N2C[C@@H]3CCCN[C@@H]3C2)ccc2c(=O)c3c(O)c(C#N)sc3n(C3CC3)c12 [Cmp 27, 9-cyclopropyl-3-hydroxyl-8-methoxy-4-oxo-7-((4aS,7aS)-tetrahydro-1H-pyrrolo[3,4-b]pyridin-6(2H,7H,7aH)-yl)-4,9-dihydrothieno[2,3-b]quinoline-2-carbonitrile]	8 (≈ 18.3 µM)	0.5 (≈ 1.15 µM)
